From ChEMBL document CHEMBL3832058, “DailyMed|setid=78f196d4-110e-45b1-813a-725f52c1a4eb | OXCARBAZEPINE -oxcarbazepine tablet, film coated|Bryant Ranch Prepack” come the findings set out here.

This series relates to Homo sapiens. The series can be described thus: Pharmacokinetic parameters for Oxcarbazepine and its active metabolite, 10-Monohydroxy Carbazepine evaluated after oral administration of Oxcarbazepine tablets. In kind it is ADME, organism-based. The settings on record: in vivo, dosed compound id 11, dosed compound name OXCARBAZEPINE; for Excretion: tissue Urine.

Take `NC(=O)N1c2ccccc2CC(O)c2ccccc21` (configuration not stated) [LICARBAZEPINE]: the Excretion stood at 49%. Also, the Tmax (dietary status Fasting, gender male, regimen Single dose, tissue Plasma) stood at 4.5 h. For the same compound, the t1/2 (dose 300 mg, regimen Single dose, tissue Plasma) worked out at 19 h. For the same compound, where the note is “tissue Plasma”, the “Vd(app)” value came to 49 L and the t1/2 worked out at 9 h.
Consider `NC(=O)N1c2ccccc2CC(=O)c2ccccc21` [OXCARBAZEPINE], for which the Excretion is on record as 27%. The t1/2 (tissue Plasma) came to 2 h.

For orientation: Tmax means the time from dosing to the highest level.
